Laboratory results from ChEMBL document CHEMBL1201862, “PubChem BioAssay data set” (2004).
Active and inactive are the calls of the source.

Key:
[1] = target: Cytochrome P450 2C19 (Homo sapiens, UniProt P33261); assay: Cytochrome panel assay with activity outcomes. Panel member name: p450-cyp2c19 Compounds with AC50 equal or less than 10 uM are considered active; assay type: functional
[2] = NIH3T3 cell viability loss – ATP luminescence, mouse fibroblasts, counter-screen, dose response (AID 2010); assay type: functional, cell-based; conditions: NIH3T3;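 further: cells exposed to compound for about 90 hours before reading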
[3] = Trypanosoma cruzi growth suppression in host cells – NIH3T3 host cells, beta-gal luminescence, confirmation (AID 2044); assay type: functional, cell-based;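 further: intracellular parasites grown in NIH/3T3 mouse fibroblasts as host cells; luminescent beta-galactosidase reporter signal from transgenic T. cruzi replicating inside host cells; inhibitors lower the luminescence signal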
[4] = test system: Streptococcus; assay: GAS UMAA2166 growth inhibition – luminescence, BacTiterGlo, counter-screen for streptokinase expression inhibitor project, dose response (AID 1915); assay type: functional, organism-based;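 further: potency for reduction of bacterial viability or growth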
[5] = test system: Streptococcus sp. 'group A'; assay: Streptococcus pyogenes SK(-)GAS viability under kanamycin – luminescence, BacTiterGlo, confirmation, counter-screen for streptokinase expression inhibitor project, dose response (AID 1900); assay type: functional, organism-based

Cytochrome P450 2C19, sequence (P33261 whole entry): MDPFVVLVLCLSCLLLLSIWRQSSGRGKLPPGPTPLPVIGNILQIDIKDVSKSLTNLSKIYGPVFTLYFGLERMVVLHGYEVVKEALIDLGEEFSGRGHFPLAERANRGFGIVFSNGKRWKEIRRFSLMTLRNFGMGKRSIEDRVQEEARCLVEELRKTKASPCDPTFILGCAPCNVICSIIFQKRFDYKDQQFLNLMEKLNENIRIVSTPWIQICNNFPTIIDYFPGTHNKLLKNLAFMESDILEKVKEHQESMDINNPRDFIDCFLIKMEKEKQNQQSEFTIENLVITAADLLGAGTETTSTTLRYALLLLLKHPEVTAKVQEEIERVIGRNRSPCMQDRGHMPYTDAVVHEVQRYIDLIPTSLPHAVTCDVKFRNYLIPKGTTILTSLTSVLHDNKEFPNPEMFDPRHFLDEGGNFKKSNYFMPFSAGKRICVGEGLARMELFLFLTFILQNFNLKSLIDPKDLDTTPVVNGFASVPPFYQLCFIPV

Row | AC50 ([1]; read-out: AC50) | Structure (SMILES) | EC50 [2] | EC50 [3] | also measured
1 | 0.0251 µM (inconclusive) | O=C(O)CC[C@@H](NC(=O)c1ccccc1C(=O)O)C(=O)O |  |  | 
2 |  | CCC1CCCCN1c1nc(-c2ccncc2)nc2ccccc12 (stereo unspecified) | 6.4 µM (active) | 0.521 µM (active) | 
3 |  | COc1ccc(Nc2nnc(-c3ccc(O)cc3)c3ccccc23)cc1 | > 60 µM (not active) | 3.48 µM (active) | 
4 |  | CCN1CCCc2cc(CN(CCN3CCOCC3)C(S)=Nc3ccc(OC)c(Cl)c3)ccc21 | > 60 µM (not active) | 1.63 µM (active) | 
5 |  | COc1ccc(C(CNC(=O)c2oc3ccc(Br)cc3c2C)N2CCCCC2)cc1 (stereo unspecified) | > 60 µM (not active) | 2.37 µM (active) | 
6 | 39.8 µM (inconclusive) | CCCCNC(=O)NS(=O)(=O)c1ccc(C(=O)OC(C)C)o1 |  |  | 
7 |  | Clc1ccc(-c2[nH]nc3c2CCC3)c(Cl)c1 |  |  | EC50 [4]: > 150 µM (not active); EC50 [5]: 16.8 µM (active)
8 |  | Cc1c(C)c(C)c2[nH]c(-c3ccc4c(c3)OCO4)nc2c1C | > 30 µM (not active) | 1.45 µM (active) | 
9 | 25.1 µM (inconclusive) | COc1ccc(C(=O)N2CCC3(CCCN(c4ccccn4)C3)CC2)cc1 |  |  | 
10 | 17.8 µM (inconclusive) | Cc1ccccc1C(=O)Nc1ccc(C(=O)NNC(=O)CCCOc2ccc(Cl)cc2Cl)cc1 |  |  | 
11 | 39.8 µM (inconclusive) | COC(=O)C1(C)C=C2C(=C(c3ccccc3)C(=O)C2C)CN1 (stereo unspecified) |  |  | 
12 | 17.8 µM (inconclusive) | CCCc1nnc(SCC(=O)N2CCCCC2)n1CC1CCCO1 (stereo unspecified) |  |  | 
13 |  | CC(C)c1csc(CN2CCC(CO)(Cc3cccc(F)c3)CC2)n1 | > 60 µM (not active) | 1.09 µM (active) | 
14 |  | CCN(CC)c1nc(-c2ccccc2)ncc1S(=O)(=O)c1ccc(C)cc1 | > 60 µM (not active) | 2.65 µM (active) | 
15 |  | NC(=O)c1csc(-c2ccc(CO)o2)n1 |  |  | AC50 [1]: inconclusive
16 |  | C=CC[n+]1c(-c2ccc(C)cc2)csc1Nc1c(C)n(C)n(-c2ccccc2)c1=O | > 60 µM (not active) | 4.99 µM (active) | 
17 |  | CN(c1ccccc1)S(=O)(=O)c1ccc(C(=O)Nc2ccncc2)cc1 | > 60 µM (not active) | 1.18 µM (active) | 
18 |  | Cc1cc(Cl)ccc1N=C(S)NCCC(c1ccccc1)c1ccccc1 |  |  | EC50 [4]: 30.3 µM (active); EC50 [5]: 5.18 µM (active)
19 |  | CCC(c1nnnn1C(C)(C)C)N(Cc1cccs1)Cc1cc2cc(C)c(C)cc2n2nnnc12 (stereo unspecified) | > 60 µM (not active) | 1.02 µM (active) | 
20 | 39.8 µM (inconclusive) | CC(=O)Nc1c(C)nn(-c2ccc(C)c(C)c2)c1C |  |  | 
21 |  | O=C(c1ccco1)N1CCN(C(=O)c2nn3cccnc3c2Cl)CC1 |  |  | AC50 [1]: inconclusive
22 |  | CC1(C)CC(O)CC(C)(C)N1CC(O)COCCOc1ccc(Br)cc1 (stereo unspecified) |  |  | AC50 [1]: inconclusive
23 |  | CCNC(=S)N/N=C/c1cccc(OCc2c(F)cccc2Cl)c1 | > 30 µM (not active) | 1.15 µM (active) | 
